Values of other authors, collected in patent US9101669B2, “Self-assembed conjugate and use thereof” (POSTECH ACADEMY-INDUSTRY FOUNDATION, priority 2012, dated 2015).

Settings: 1 to 1 host-guest complex, protonated forms, aqueous solution

Row | binding constant | Compound
1 | up to 10^10 M^−1 | NCCCCCCN [DAH, 1,6-diaminohexane]
2 | ≤ 10^12 M^−1 | NCCCNCCCCNCCCN [SPM, spermine]
